The target in experiment [1] is T1, TBNAT (Mycobacterium tuberculosis, UniProt P9WJI5).
T1 construct: made in house
Description: ESI-MS analysis of covalent enzyme-inhibitor adducts. The class given is binding, M. tuberculosis. Particulars: enzyme-to-inhibitor ratio 1∶15; proposed number of inhibition species bound per protein molecule.

Experiment [2] concerns the target T1, TBNAT. In words: Reversibility of inhibition by dialysis. Format: biochemical, M. tuberculosis. Particulars: 15-fold molar excess, 1 h at 24°C, dialysis 16 h at 4°C. The procedure: Figure 3 Reversibility of the inhibition of TBNAT and MMNAT by compound 1. Each enzyme (MMNAT, TBNAT, 0.07 mM, 50 µL) was preincubated either alone or with 15-fold molar excess 1 at 24°C for 1 h. Each sample was then dialysed against 1 L fresh assay buffer (20 mM Tris-HCl pH 8) at 4°C for 16 h. The enzyme activities of the samples were measured before dialysis and then measured after dialysis by measuring the rate of Ac-CoA hydrolysis in the presence of HLZ as described in Methods. The mean ± S.D. of three measurements of the activity is shown. Loss of enzyme activity upon dialysis is likely to be due to the oxidation of the active site sulfhydryl group, especially since dialysis was performed in the absence of dithiothreitol.
For the reversibility studies, excess inhibitor was […] by dialysis. Each enzyme (0.07 mM MMNAT or TBNAT in 20 mM Tris-HCl pH 8 and 5% (v/v) DMSO) was preincubated either alone or with 15-fold molar excess of compound 1 in a final volume of 50 µL at 24°C for 1 h. Each sample was then dialysed against 1 L fresh assay buffer (20 mM Tris-HCl pH 8) at 4°C for 16 h. The enzyme activities of the samples were measured before dialysis and then measured after dialysis by measuring the rate of Ac-CoA (120 µM) hydrolysis in the presence of 150 µM HLZ.

A further experiment concerns the target MMNAT (Mycobacterium marinum, UniProt B2HIZ6). In words: Time-dependent inhibition assay (Kitz and Wilson model). Format: biochemical, M. marinum. Particulars: inhibitor at 11.9 µM; 24°C. The procedure:
The time course of the inhibition of NAT by the piperidinols was evaluated according to the Kitz and Wilson model. Irreversible inhibition, progressive with time, was measured for the piperidinol inhibitors (1–5) by the protocol described in Figure S2, and the values of the apparent first order constant (kobs) were determined (Table 1). Dilution rather than dialysis was used in this protocol due to the likely loss of activity upon dialysis (Figure 3). […] Examples of the curves obtained for enzyme activity against incubation time upon inhibition of MMNAT and TBNAT by the piperidinols are shown in Figure 4.
For the determination of the time dependence of interaction between enzymes and inhibitors, the inhibitor was diluted to less than 1% concentration. Incubation mixtures (20 µL) contained 0.06 mM MMNAT or TBNAT in 20 mM Tris-HCl, pH 8 and 5% (v/v) DMSO and variable concentrations of the inhibitors (0–50 µM) were prepared using the protocol described in Figure S1. Aliquots of 1 µL were removed from the reaction mixture at different time points (incubation-time) and diluted to 100 µL using the assay buffer containing HLZ and Ac-CoA to the final concentrations of 150 µM and 120 µM, respectively. The rate of Ac-CoA hydrolysis was measured over a three-minute time period. The reaction was stopped with 25 µL Ellman's reagent in 6.4 M guanidine and the absorbance was measured at a wavelength of 405 nm. The residual activity was measured as a percentage of a control prepared as described in Figure S1 and plotted against the incubation-time. The data were fitted using the Semilog line (X is linear, Y is Log) module of GraphPad Prism 5.0. The slope of each line is equivalent to (−kobs/2.303) at each inhibitor concentration.The controls in which no enzyme was present using CoA and Ellman's reagent gave the same results whether compound 1 was present or not.

In experiment [3] the target is T1, TBNAT. Description: NAT-inhibition assay (Ac-CoA hydrolysis with hydralazine, Ellman's reagent). Particulars: 150 µM HLZ, 120 µM Ac-CoA, 24°C. The class given is biochemical, M. tuberculosis. Here is the method: An assay for measuring the formation of CoA was used to determine the activity of the enzyme in the presence of potential inhibitors. All the tested compounds were dissolved in dimethylsulphoxide (DMSO) and all reactions were carried out in the presence of 5% (v/v) DMSO. The enzyme (100–150 ng) was mixed with the inhibitors 1–5 (5 µL at a final concentration of 0–250 µM) and incubated for 15 min at 24°C prior to starting the reaction by adding 15 µL hydralazine and 12 µL Ac-CoA at final concentrations of 150 µM and 120 µM respectively, in a final total volume of 100 µL of 20 mM Tris-HCl pH 8. The assay was performed as an end-point read out measurement by stopping the reaction after 10 min at 24°C using 25 µL Ellman's reagent (5 mM 5,5′-dithiobis-(2-nitrobenzoate) solution in 6.4 M guanidine-HCl and 100 mM Tris-HCl, pH 7.3). The absorbance was measured at a wavelength of 405 nm within 2 min (Tecan Sunrise Plate Reader). The assays were repeated using a 10-fold enzyme concentration to exclude promiscuous non-specific inhibitors. The activity of the enzyme in the presence of 5% (v/v) DMSO was measured as a control. Inhibition values were determined as the ratio of the enzyme activity (expressed as the rate of CoA formation per microgram protein (µM/min.µg)) with the requisite compound, to the activity of the control without inhibitor. IC50 values were determined from the inhibition curves which were obtained by non-linear fitting of the % inhibition and the inhibitor concentration (µM) using the Log(inhibitor) vs. response module of GraphPad Prism 5.0.

We go through one molecule from publication PMC3532304, “Piperidinols That Show Anti-Tubercular Activity as Inhibitors of Arylamine N-Acetyltransferase: An Essential Enzyme for Mycobacterial Survival Inside Macrophages” (PLoS ONE, 2012).

Structures are written as SMILES. Several values for one entry are separate records, joined by “and”; a condition that tells them apart may be missing. Identical values can stand only once.

T1 sequence (P9WJI5 whole entry): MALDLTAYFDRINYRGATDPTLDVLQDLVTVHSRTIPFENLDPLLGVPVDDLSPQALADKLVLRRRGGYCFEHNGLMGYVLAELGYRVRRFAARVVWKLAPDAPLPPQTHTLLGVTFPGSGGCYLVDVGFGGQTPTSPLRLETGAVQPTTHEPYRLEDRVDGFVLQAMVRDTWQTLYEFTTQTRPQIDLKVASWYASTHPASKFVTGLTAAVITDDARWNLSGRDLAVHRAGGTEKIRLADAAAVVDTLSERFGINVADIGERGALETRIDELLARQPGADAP
MMNAT, sequence (B2HIZ6 entry or part of it): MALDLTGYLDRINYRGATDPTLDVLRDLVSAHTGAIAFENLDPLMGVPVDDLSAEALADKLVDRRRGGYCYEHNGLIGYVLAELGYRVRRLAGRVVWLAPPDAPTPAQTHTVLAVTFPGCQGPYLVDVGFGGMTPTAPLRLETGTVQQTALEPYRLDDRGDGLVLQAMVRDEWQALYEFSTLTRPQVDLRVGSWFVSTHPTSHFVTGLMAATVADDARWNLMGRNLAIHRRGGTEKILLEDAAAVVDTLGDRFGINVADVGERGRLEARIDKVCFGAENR

The term inhibition denotes the drop in the measured response relative to a control, in per cent. For orientation: IC50 means the concentration at which inhibition is half-maximal. High values mean weaker potency in that assay, low ones greater potency in that assay. For the molecule `CN1CCC(O)(c2ccccc2)C(C(=O)c2ccccc2)C1` (centres unmarked) [compound 1, (4-hydroxy-1-methyl-4-phenylpiperidin-3-yl)(phenyl)methanone], the “Molar ratio (inhibitor/protein) (TBNAT)” value at TBNAT [1] is 1 and 2. For the same molecule, the “restoration of enzyme activity by dialysis (TBNAT)” value on TBNAT [2] is “completely ineffective in restoring the activity”. Further, the MMNAT kobs at MMNAT was 9±2 10^−3 min^−1. Moreover, on TBNAT [3] (50 µM inhibitor, mean ± S.D. of triplicate, read-out: TBNAT % Inhibition), the inhibition at 50 µM was found to be 101 ± 1%. This molecule gave a 50% inhibitory concentration (IC50) on TBNAT [3] (mean ± S.D.) of 7.7 ± 0.9 µM.
